From patent US20240181087A1, “COMPOSITION FOR CONTRAST IMAGING OF CANCER” (ASTELLAS PHARMA INC., priority 2021, published 2024)

Experiments:
[1] = tested on: human glioblastoma cells U-251MG; test: near-infrared fluorescence imaging after topical administration into tumor, human glioblastoma subcutaneous transplant model; assay type: in vivo; settings: U-251MG glioblastoma, SCID mouse, 0.02 to 0.1 mL of 1 mg/mL, 1 hour after administration
Description: A human cancer cell transplant model mouse was created as follows: • (Head and neck/tongue cancer) To immunodeficient SCID mice (weight: 17 g to 23 g), about 10^6 human tongue cancer cells CAL27 (purchased from American Type Culture Collection: ATCC) were subcutaneously administered, and the resultant mice were grown for 49 days to create tumor models. • (Brain cancer/neuroblastoma) To immunodeficient SCID mice (weight: 17 g to 23 g), about 10^6 human neuroblastoma cells SH-SY5Y (purchased from ATCC) were subcutaneously administered, and the resultant mice were grown for 90 days to create tumor models. • (Brain cancer/glioblastoma) To immunodeficient SCID mice (weight: 17 g to 23 g), about 10^6 human glioblastoma cells U-251MG (obtained from European Collection of Authenticated Cell Cultures) were subcutaneously administered, and the resultant mice were grown for 90 days to create tumor models.
Subsequently, to the tumor of each of the mouse models, 0.02 to 0.1 mL of a saline containing the compound III (concentration of the compound III: 1 mg/mL) was topically administered, and fluorescence imaging was conducted transdermally with a near-infrared fluorescence camera (Fluobeam, manufactured by Fluoptics) (excitation wavelength: 780 nm, detection wavelength: 800 nm or more).

RenCa cell [2] = test: near-infrared fluorescence imaging of lung, lung cancer-bearing mouse (RenCa, tail vein inoculation); assay type: in vivo; settings: tail vein 120 nmol/kg; after 10 minutes; excised lung
Description: Metastatic spontaneous renal cell carcinoma line from BALB/c mouse, RenCa cell (1×10^6 cells, purchased from CLS Cell Lines Service GmbH, Eppelheim, Germany) was prepared in RPMI-1640 medium (fetal bovine serum free, FUJIFILM Wako Pure Chemical Corporation), the resultant was inoculated in a mouse (BALB/cCrSlc, SPF, female, 7 weeks old) by tail vein administration under anesthesia by subcutaneous administration of ketamine (75 mg/kg) and medetomidine (1 mg/kg), and the resultant mouse was bred for 18 days to cause lung cancer therein. The mouse was anesthetized by subcutaneous administration of ketamine (75 mg/kg) and medetomidine (1 mg/kg), and the compound III (120 nmol/kg weight) was administered through the tail vein. After 10 minutes, the lung was excised to perform near-infrared fluorescence imaging with a near-infrared fluorescence imaging device (pde-neo, manufactured by Hamamatsu Photonics K.K.).

[3] = tested on: renal epithelial cell carcinoma; test: near-infrared fluorescence imaging of kidney with tumor/pretumor induced with ferric nitrilotriacetate; assay type: in vivo, rat
Description: A kidney cancer […] model was created based on a method reported by Okada et al., (Okada et al., Jpn. Arch. Int. Med., 1982, 29, 485). Specifically, rats (280 g to 320 g) were bred after continuously intraperitoneally administering ferric nitrilotriacetate to the rats for 6 months, and thus, renal epithelial cell carcinoma was induced therein.
Each of the rats was anesthetized by intraperitoneally administering pentobarbital sodium salt, a saline containing the compound III was administered to the tail vein (dose of the compound: 0.75 mg/kg of the rat), and 30 minutes, 3 hours, or 24 hours after the administration, the rat was subjected to laparotomy to perform near-infrared fluorescence imaging of the kidney with a near-infrared fluorescence imaging device (PDE, manufactured by Hamamatsu Photonics K.K.) (FIG. 11). Besides, the kidney having been subjected to the near-infrared fluorescence imaging was excised from the body, and the cross section was subjected to near-infrared fluorescence imaging (FIG. 12). Three rats each were used at each of the above-described timings after the administration, and nine rats were used in total.
Besides, a specimen for microscopic observation was created through ethanol immobilization, section creation, hematoxylin/eosin staining for performing observation in bright field and near-infrared fluorescence (FIG. 13). […] Thus, tumor embedded in surrounding tissues could be detected.

B16F1 (skin cancer cell) = test: near-infrared fluorescence imaging after administration into tumor, B16F1 skin cancer model; assay type: in vivo, mouse; settings: 0.02 to 0.05 mL of 1 mg/mL saline, transdermal imaging
From the text: A syngeneic tumor transplanted mouse model was created as follows referring to “Gan-Shikkan Model no Sakusei to Riyo (Cancer-Creation and Use of Disease Model)” (Takuro Nakamura, LIC, 2012). • (Breast Cancer) A tumor model was created by breeding a normal Balb/c mouse (weight: about 20 g to 30 g) for 14 days with mouse tumor cell 4T1 subcutaneously administered thereto. • (Colorectal Cancer) A tumor model was created by breeding a normal Balb/c mouse (weight: about 20 g to 30 g) for 14 days with CT26 (colorectal cancer cell) subcutaneously administered thereto. • (Skin Cancer) A tumor model was created by breeding a C57BL/6 mouse (weight: about 15 g to 20 g) for 14 days with B16F1 (skin cancer cell) subcutaneously administered thereto.
Subsequently, to the tumor of each of the model mice, 0.02 to 0.05 mL of a saline containing the compound III or ICG (concentration of the compound III or ICG: 1 mg/mL) was administered, and fluorescence imaging was performed transdermally with a near-infrared fluorescence camera (Fluobeam, manufactured by Fluoptics, http://www.solve-net.com/info/wp-content/uploads/downloads/2013/12/Fluobeam.pdf) (excitation wavelength: 780 nm, detection wavelength: 800 nm or more).

RenCa cell [4] = test: near-infrared fluorescence imaging of abdominal cavity, peritoneal cancer mouse model (RenCa, intraperitoneal); assay type: in vivo; settings: tail vein 12 nmol/kg; laparotomy immediately after administration
Description: Metastatic spontaneous renal cell carcinoma line from BALB/c mouse, RenCa cell (5×10^6 cells, purchased from CLS Cell Lines Service GmbH, Eppelheim, Germany) was intraperitoneally inoculated into a mouse (BALB/cCrSlc, SPF, female, 7 weeks old) and the resultant mouse was bred for 14 days to cause peritoneal cancer therein. The mouse (weight: about 20 g) was anesthetized by subcutaneous administration of ketamine (75 mg/kg) and medetomidine (1 mg/kg), and the compound III (12 nmol/kg weight) was administered through the tail vein. Immediately after the administration, laparotomy was conducted to perform near-infrared fluorescence imaging with a near-infrared fluorescence imaging device (pde-neo, manufactured by Hamamatsu Photonics K.K.).

[5] = ferric nitrilotriacetate rat, tail vein 0.75 mg/kg, excised kidney

COC1=C(/C=C/C2=[N+](CCC(=O)NCCCO[C@H]3[C@H]4O[C@H]5[C@H](O)[C@@H](O)[C@@H](O[C@H]6[C@H](O)[C@@H](O)[C@@H](O[C@H]7[C@H](O)[C@@H](O)[C@@H](O[C@H]8[C@H](O)[C@@H](O)[C@@H](O[C@H]9[C@H](O)[C@@H](O)[C@@H](O[C@H]%10[C@H](O)[C@@H](O)[C@@H](O[C@@H]([C@@H]3O)[C@@H](CO)O4)O[C@@H]%10CO)O[C@@H]9CO)O[C@@H]8CO)O[C@@H]7CO)O[C@@H]6CO)O[C@@H]5CO)c3ccc4ccccc4c3C2(C)C)CCC/C1=C\C=C1\N(CCC(=O)NCCCO[C@H]2[C@H]3O[C@H]4[C@H](O)[C@@H](O)[C@@H](O[C@H]5[C@H](O)[C@@H](O)[C@@H](O[C@H]6[C@H](O)[C@@H](O)[C@@H](O[C@H]7[C@H](O)[C@@H](O)[C@@H](O[C@H]8[C@H](O)[C@@H](O)[C@@H](O[C@H]9[C@H](O)[C@@H](O)[C@@H](O[C@@H]([C@@H]2O)[C@@H](CO)O3)O[C@@H]9CO)O[C@@H]8CO)O[C@@H]7CO)O[C@@H]6CO)O[C@@H]5CO)O[C@@H]4CO)c2ccc3ccccc3c2C1(C)C.[Cl-] [compound III, 3-(3-{[3-(cyclomaltoheptaose-21-O-yl)propyl]amino}-3-oxopropyl)-2-{(1E)-2-[(3E)-3-{(2E)-2-[3-(3-{[3-(cyclomaltoheptaose-21-O-yl)propyl]amino}-3-oxopropyl)-1,1-dimethyl-1,3-dihydro-2H-benzo[e]indol-2-ylidene]ethylidene}-2-methoxycyclohexa-1-en-1-yl]ethene-1-yl}-1,1-dimethyl-1H-benzo[e]indol-3-ium chloride]
retention inside the tumor (fluorescence imaging) [1]: retained inside the tumor | intensity of near-infrared fluorescence in lung cancer site (RenCa cell [2]): low | near-infrared fluorescence micro image of kidney tissue section ([3]; ferric nitrilotriacetate rat, near-infrared fluorescence microscope, section 3 hours after administration): strong near-infrared fluorescence was found locally in a non-neoplastic degeneration site, a pre-neoplastic degeneration site, and a neoplastic degeneration site | near-infrared fluorescence macro image of the surface of the kidney having tumor and pretumor ([3]; ferric nitrilotriacetate rat, tail vein 0.75 mg/kg, 30 minutes, 3 hours or 24 hours after administration): strong fluorescence was locally found in a dotted manner | near-infrared fluorescence image of kidney cross section: dotted fluorescence in renal medulla [3, 5]: not observed | near-infrared fluorescence image of kidney cross section: renal cortex [3, 5]: a site exhibiting strong fluorescence in a dotted manner was observed | aspect of dotted strong fluorescence in normal kidney ([3]; normal rat, tail vein 0.75 mg/kg): not observed | retention in tumor (fluorescence imaging) (B16F1 (skin cancer cell)): retained in the tumor | near-infrared fluorescence from peritoneal cancer site versus normal tissue (RenCa cell [4]): stronger than that from a normal tissue
